Measurements from PubChem BioAssay (NCI).
Several values for one entry are separate records, joined by “and”; a condition that tells them apart may be missing. Equal entries are not always repeated.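 Cells were grown in 96-well plates and exposed to each compound for 48 hours at five concentrations; endpoints were interpolated linearly between bracketing concentrations, or set to the highest concentration if not reached. GI50 marks 50% less growth. Definition used: TGI = concentration required for complete inhibition of growth.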

Key:
Assay in all cases: NCI-60 cell line screen, 48 h
[1] = tested on: 786-0 renal
[2] = tested on: A549 NSCLC
[3] = tested on: KM12 colon
[4] = tested on: MOLT-4 leukemia
[5] = tested on: OVCAR-5 ovarian
[6] = tested on: SF-539 CNS
[7] = tested on: SK-MEL-28 melanoma
[8] = tested on: SK-MEL-5 melanoma
[9] = tested on: SNB-75 CNS
[10] = tested on: SK-MEL-2 melanoma

Row | SMILES | GI50 [1] | TGI [1] [µM] | GI50 [2] [µM] | TGI [2] [µM] | GI50 [3] | TGI [3] [µM] | GI50 [4] | TGI [4] [µM] | GI50 [5] [µM] | TGI [5] [µM] | GI50 [6] | TGI [6] | GI50 [7] [µM] | TGI [7] [µM] | GI50 [8] | TGI [8] [µM] | GI50 [9] [µM] | TGI [9] [µM] | GI50 [10] [µM] | TGI [10] [µM]
1 | CCCN(CCC)c1ccc(/C=N/NC(=O)c2cccnc2)c(C)c1 | 18.6 µM | 42.2 | 15.7 | 36.8 | 11.9 µM | 24.5 | 16.5 µM | 42.6 | 13.1 | 33.8 | 13.8 µM | 29.3 µM | 16.4 | 43.1 | 12.8 µM | 25.4 | 12.5 | 36.1 | – | –
2 | CCOC(=O)c1ccc(N2NC(=O)/C(=C/c3ccc([N+](=O)[O-])o3)C2=O)cc1 | 19.1 µM | 37.3 | > 44.7 | > 60.6 | > 40.7 µM | > 55.3 | 11.3 µM | 53.1 | 19 | 40.7 | 18.8 µM | 46 µM | 18.6 | 36 | > 40.4 µM | > 54.9 | 27.6 | > 51.5 | > 40.6 | > 55.4
3 | Cc1cccc2c(=O)c3c(sc12)c(NCCCNCCO)nc1ccccc13 | 1.75 µM | 3.4 | 1.06 | 2.64 | 1.72 µM | 3.25 | 1.13 µM | 2.62 | 1.6 | 3.02 | 1.71 µM | 3.09 µM | 1.73 | 3.18 | 1.78 µM | 3.29 | 1.13 | 2.35 | 1.75 | 3.34
4 | CN1CCN(C)C1c1ccc(C2N(C)CCN2C)cc1 | > 100 µM | > 100 | > 100 | > 100 | 46.5 µM | > 100 | 26.1 µM | 62 | 86.4 | > 100 | 35.6 µM | > 100 µM | 67.8 | > 100 | 24.4 µM | 89.7 | > 100 | > 100 | > 100 | > 100
5 | COc1cc(-n2cc(-c3ccc(Cl)cc3)n(-c3ccccc3)c2=O)cc(OC)c1OC | 30.7 µM | > 100 | 19.3 | > 100 | 23.3 µM | > 100 | 11.3 µM | > 51.6 | 39.4 | > 100 | 27.1 µM | > 100 µM | 21.4 | > 100 | 3.99 µM | 17.7 | 20.9 | > 100 | 17.4 | 40
6 | ClCc1ccccc1Cn1cnc2nc(Cl)nc(Cl)c21 | 0.19 µM | 1.08 | 5.29 | 13.2 | 5.93 µM | 24.2 | 1.49 µM | 4.09 | 1.71 | 3.65 | 0.639 µM | 1.29 µM | 0.582 | – | 0.369 µM | 0.997 | 1.6 | 3.43 | 1.89 | 8.59
7 | O=C(COc1ccccc1)NNc1ccccc1 | > 68.5 µM and 66.1 µM | > 300 | 60.4 | – | 9.03 µM and 6.49 µM | > 300 | 25.5 µM and 16.3 µM | > 300 | 144 | > 300 | 18.1 µM and 9.52 µM | 55.1 µM and 37.6 µM | > 300 | > 300 | 46.2 µM and 104 µM | > 300 | 60.8 | 251 | 74.5 | > 300
8 | COc1cccc(S(=O)(=O)NC2=NCCN2C(=S)SN2CCn3c2nsc3=S)c1 | 31.6 µM | > 100 | > 100 | > 100 | 30.5 µM | 80.1 | 32.5 µM | > 100 | 23 | 79.4 | 27.3 µM | 70 µM | 31.4 | 74.2 | 37.9 µM | > 100 | 30 | 89.6 | 68.2 | > 100
9 | COc1ccc(Sc2[nH]c(C=O)c3ccccc23)cc1 | 12 µM | 26.1 | 13.3 | > 100 | 3.62 µM | 13.7 | 1.31 µM | 19 | 6.1 | 28.3 | 10.9 µM | 23 µM | 15.1 | 30 | 12.9 µM | 25.5 | 11.9 | 25.5 | 13.6 | 32.4
10 | c1cc[c]([Ge]([O]c2cccc3cccnc23)([c]2ccccc2)[c]2ccccc2)cc1 | 4.7 µM | 15.7 | 5.34 | 21.7 | 1.95 µM | 5.09 | – | – | 15.9 | 29.5 | 3.36 µM | 11.3 µM | 3.56 | 14.3 | – | – | 3.5 | 13.1 | 2.59 | 11.7
11 | CCCCCCOC(=O)CC1=C(C)/C(=C/c2[nH]c(-c3ccc[nH]3)cc2OC)N=C1C | 0.0829 µM | 1.16 | 0.361 | 1.26 | 0.0535 µM | 1.4 | 0.0436 µM | 1.46 | 0.371 | 2 | 0.0635 µM | 1.27 µM | – | – | – | – | 0.0372 | 0.3 | 0.0532 | 0.23
12 | COc1ccc2cc3c4cc(OC)c(OC)cc4ccn3c2c1 | – | > 100 | – | > 100 | – | > 100 | – | > 100 | – | > 100 | – | > 100 µM | – | > 100 | – | > 100 | – | – | – | > 100
13 | CCNCC(=O)Nc1ccc2c(c1)C(=O)c1ccc(NC(=O)CNCC)cc1C2=O | – | 7.92 | – | 14.6 | – | > 100 | – | – | – | 10.7 | – | 16.2 µM | – | 19.2 | – | 59.3 | – | 7.44 | – | 47.4
